Laboratory results as given in patent US20230109833A1, “METABOLICALLY STABLE N-ACYLAMINOOXADIAZOLES USEFUL AS ANTIBACTERIAL AGENTS” (MICROBIOTIX, INC., priority 2017, published 2023).

Experiments:
Format in all cases: binding
Adenosine A1 = target: T1, Adenosine A1 (Homo sapiens, UniProt P30542); conditions: 10 μM compound, Hit Profile Panel
T1 sequence (P30542 1-326): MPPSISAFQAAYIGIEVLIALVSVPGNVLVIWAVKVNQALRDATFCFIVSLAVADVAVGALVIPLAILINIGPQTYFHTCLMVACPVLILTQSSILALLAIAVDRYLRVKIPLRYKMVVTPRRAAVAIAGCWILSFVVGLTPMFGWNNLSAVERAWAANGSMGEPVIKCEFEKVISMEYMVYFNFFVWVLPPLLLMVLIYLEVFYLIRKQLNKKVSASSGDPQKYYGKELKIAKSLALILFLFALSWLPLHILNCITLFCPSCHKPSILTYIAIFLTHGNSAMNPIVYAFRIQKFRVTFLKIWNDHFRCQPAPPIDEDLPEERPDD

Adenosine A2A = Adenosine A2A (Homo sapiens, UniProt P29274); conditions: 10 μM compound, Hit Profile Panel
Sequence of Adenosine A2A (P29274 whole entry): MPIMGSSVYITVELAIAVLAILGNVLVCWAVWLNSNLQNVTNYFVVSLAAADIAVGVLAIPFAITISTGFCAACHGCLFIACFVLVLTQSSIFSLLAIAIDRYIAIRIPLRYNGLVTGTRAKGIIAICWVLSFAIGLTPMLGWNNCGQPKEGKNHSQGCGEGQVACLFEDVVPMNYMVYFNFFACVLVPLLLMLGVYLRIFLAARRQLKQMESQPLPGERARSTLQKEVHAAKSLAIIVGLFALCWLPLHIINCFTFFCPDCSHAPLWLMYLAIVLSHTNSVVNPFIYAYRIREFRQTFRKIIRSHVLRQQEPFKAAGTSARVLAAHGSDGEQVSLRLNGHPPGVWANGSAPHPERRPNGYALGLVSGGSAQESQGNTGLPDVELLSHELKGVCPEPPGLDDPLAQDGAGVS

Adrenergic α2A = target: T2, Adrenergic α2A (Homo sapiens, UniProt P08913); conditions: 10 μM compound, Hit Profile Panel
T2 sequence (P08913 1-465): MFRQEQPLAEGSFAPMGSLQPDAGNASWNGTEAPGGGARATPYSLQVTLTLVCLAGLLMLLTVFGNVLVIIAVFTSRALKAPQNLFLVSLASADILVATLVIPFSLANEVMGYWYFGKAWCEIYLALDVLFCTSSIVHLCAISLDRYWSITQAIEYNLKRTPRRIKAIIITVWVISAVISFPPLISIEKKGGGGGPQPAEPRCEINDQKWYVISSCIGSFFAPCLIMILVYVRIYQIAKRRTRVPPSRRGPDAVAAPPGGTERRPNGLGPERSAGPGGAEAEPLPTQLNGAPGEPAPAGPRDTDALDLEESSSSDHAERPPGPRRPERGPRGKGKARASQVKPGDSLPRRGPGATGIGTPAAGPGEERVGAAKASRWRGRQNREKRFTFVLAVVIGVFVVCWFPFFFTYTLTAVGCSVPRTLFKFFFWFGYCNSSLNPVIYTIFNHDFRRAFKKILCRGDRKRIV

Adrenergic β1 = Adrenergic β1 (Homo sapiens, UniProt P08588); conditions: 10 μM compound, Hit Profile Panel
Sequence of Adrenergic β1 (P08588 whole entry): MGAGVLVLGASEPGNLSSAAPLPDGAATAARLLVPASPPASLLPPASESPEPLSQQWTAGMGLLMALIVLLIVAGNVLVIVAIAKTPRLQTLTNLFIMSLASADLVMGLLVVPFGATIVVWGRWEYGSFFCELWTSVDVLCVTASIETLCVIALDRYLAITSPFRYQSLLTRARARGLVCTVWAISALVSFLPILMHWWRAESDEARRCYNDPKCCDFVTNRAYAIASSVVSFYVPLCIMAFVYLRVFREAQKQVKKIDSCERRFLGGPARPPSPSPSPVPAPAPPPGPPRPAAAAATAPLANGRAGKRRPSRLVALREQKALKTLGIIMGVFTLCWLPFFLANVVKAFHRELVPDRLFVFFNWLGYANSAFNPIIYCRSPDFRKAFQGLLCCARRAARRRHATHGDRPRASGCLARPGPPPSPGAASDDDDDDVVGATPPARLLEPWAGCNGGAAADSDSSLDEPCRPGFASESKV

Adrenergic β2 = Adrenergic β2 (Homo sapiens, UniProt P07550); conditions: 10 μM compound, Hit Profile Panel
Sequence of Adrenergic β2 (P07550 whole entry): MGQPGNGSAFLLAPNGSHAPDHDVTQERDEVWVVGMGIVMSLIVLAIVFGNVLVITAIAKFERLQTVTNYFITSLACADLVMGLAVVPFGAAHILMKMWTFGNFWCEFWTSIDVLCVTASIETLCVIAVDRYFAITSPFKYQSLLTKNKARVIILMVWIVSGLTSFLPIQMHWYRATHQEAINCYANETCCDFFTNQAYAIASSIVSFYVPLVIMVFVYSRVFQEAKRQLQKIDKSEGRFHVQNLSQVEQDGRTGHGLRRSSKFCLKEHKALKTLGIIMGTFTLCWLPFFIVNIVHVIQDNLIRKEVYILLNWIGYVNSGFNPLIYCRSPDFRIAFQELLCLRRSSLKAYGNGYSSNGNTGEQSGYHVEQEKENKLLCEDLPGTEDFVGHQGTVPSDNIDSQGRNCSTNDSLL

[1] = system: Calcium Channel L-type, Dihydropyridine; conditions: rat; 10 μM compound; Hit Profile Panel
Cannabinoid CB1 = Cannabinoid CB1 (Homo sapiens, UniProt P21554); conditions: 10 μM compound, Hit Profile Panel
Sequence of Cannabinoid CB1 (P21554 whole entry): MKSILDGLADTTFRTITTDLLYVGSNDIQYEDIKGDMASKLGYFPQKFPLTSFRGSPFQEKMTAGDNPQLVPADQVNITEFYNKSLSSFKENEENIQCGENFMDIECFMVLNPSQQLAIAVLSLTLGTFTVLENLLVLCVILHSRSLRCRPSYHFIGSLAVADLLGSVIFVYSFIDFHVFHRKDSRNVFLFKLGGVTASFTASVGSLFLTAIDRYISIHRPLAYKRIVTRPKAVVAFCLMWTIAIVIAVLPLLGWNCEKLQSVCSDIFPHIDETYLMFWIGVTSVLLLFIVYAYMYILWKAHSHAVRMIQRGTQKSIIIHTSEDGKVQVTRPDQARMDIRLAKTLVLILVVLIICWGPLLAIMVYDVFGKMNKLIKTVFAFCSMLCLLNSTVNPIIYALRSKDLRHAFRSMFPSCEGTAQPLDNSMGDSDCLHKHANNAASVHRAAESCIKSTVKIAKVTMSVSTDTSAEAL

Dopamine D1 = Dopamine D1 (Homo sapiens, UniProt P21728); conditions: 10 μM compound, Hit Profile Panel
Sequence of Dopamine D1 (P21728 whole entry): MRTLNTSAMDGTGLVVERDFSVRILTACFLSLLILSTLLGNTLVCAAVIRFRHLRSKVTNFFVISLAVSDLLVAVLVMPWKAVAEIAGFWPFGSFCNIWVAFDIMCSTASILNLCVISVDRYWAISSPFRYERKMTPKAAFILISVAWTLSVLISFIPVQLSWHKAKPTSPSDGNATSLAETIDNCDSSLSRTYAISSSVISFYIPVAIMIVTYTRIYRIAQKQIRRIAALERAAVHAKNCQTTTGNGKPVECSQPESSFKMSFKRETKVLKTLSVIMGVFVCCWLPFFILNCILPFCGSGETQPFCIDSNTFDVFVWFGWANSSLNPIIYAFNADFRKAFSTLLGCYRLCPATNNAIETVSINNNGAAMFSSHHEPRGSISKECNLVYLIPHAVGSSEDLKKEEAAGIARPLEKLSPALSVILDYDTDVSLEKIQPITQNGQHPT

Dopamine D2s = Dopamine D2s (Homo sapiens, UniProt P14416); conditions: 10 μM compound, Hit Profile Panel
Sequence of Dopamine D2s (P14416 1-414 isoform P14416-2): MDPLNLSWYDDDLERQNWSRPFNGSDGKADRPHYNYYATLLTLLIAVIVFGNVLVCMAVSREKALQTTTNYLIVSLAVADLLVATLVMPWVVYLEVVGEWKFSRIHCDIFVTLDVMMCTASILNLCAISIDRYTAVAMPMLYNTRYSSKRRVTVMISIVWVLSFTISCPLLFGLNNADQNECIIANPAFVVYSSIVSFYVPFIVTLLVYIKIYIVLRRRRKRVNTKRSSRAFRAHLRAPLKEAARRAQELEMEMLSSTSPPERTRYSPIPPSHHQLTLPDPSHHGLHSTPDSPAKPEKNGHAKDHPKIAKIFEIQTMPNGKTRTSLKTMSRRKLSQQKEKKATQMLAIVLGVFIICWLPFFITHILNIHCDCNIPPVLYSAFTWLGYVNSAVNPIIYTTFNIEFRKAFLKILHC

[2] = system: GABAA, Flunitrazepam, Central; conditions: rat; 10 μM compound; Hit Profile Panel
GABAA, Muscimol, Central = conditions: rat; 10 μM compound; Hit Profile Panel
[3] = system: Glutamate, NMDA, Phencyclidine; conditions: rat; 10 μM compound; Hit Profile Panel
Histamine, H1 = Histamine, H1 (Homo sapiens, UniProt P35367); conditions: 10 μM compound, Hit Profile Panel
Sequence of Histamine, H1 (P35367 whole entry): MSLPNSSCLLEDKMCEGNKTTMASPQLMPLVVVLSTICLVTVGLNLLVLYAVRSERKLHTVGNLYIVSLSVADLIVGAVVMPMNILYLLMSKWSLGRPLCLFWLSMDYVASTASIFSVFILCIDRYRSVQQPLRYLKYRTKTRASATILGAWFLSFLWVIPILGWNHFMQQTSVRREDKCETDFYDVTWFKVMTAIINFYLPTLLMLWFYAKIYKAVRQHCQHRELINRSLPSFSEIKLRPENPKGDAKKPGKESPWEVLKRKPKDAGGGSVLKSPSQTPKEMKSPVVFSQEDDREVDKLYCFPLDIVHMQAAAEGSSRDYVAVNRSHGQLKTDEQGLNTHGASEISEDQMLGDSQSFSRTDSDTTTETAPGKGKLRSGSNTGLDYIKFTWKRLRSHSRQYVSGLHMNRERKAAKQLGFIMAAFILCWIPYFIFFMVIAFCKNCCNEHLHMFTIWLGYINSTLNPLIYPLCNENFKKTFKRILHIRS

Muscarinic M2 = target: T3, Muscarinic M2 (Homo sapiens, UniProt P08172); conditions: 10 μM compound, Hit Profile Panel
T3 sequence (P08172 1-466): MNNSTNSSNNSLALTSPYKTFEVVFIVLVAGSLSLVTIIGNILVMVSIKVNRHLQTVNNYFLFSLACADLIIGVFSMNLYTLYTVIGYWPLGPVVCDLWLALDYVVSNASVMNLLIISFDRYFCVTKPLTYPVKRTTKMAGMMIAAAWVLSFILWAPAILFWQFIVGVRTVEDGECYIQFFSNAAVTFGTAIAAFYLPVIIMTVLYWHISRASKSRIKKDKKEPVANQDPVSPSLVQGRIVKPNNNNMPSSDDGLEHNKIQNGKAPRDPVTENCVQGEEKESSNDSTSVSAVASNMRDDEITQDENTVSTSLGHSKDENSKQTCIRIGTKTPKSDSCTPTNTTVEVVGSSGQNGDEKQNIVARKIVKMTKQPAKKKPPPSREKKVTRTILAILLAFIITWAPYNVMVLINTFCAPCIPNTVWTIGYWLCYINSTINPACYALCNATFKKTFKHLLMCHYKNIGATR

Muscarinic M3 = Muscarinic M3 (Homo sapiens, UniProt P20309); conditions: 10 μM compound, Hit Profile Panel
Sequence of Muscarinic M3 (P20309 whole entry): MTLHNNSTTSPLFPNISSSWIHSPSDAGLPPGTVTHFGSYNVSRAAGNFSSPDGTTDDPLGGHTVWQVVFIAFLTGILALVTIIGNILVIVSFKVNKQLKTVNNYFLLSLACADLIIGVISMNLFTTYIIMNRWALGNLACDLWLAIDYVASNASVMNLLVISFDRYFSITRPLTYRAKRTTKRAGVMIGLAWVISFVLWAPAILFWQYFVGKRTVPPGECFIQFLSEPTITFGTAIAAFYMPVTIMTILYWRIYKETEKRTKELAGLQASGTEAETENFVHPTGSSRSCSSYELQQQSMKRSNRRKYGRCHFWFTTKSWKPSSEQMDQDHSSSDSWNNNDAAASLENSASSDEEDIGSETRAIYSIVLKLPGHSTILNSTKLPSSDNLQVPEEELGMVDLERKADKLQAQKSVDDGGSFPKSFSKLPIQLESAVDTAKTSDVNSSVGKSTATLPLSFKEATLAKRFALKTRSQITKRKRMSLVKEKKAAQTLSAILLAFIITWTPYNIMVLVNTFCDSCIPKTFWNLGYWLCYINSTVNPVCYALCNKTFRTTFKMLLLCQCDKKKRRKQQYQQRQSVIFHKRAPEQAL

Nicotinic Acetylcholine = conditions: human; 10 μM compound; Hit Profile Panel
[4] = target: Nicotinic Acetylcholine a1, Bungarotoxin (Homo sapiens, UniProt P02708+P07510+Q07001); conditions: for inhibition at 10 µM: read-out: % Inhibition, Nicotinic Acetylcholine a1, Bungarotoxin
Prostanoid EP4 = Prostanoid EP4 (Homo sapiens, UniProt P35408); conditions: 10 μM compound, Hit Profile Panel
[5] = target: Seritonin (5-Hydroxytryptamine) 5-HT2B (Homo sapiens, UniProt P41595); conditions: 10 μM compound, Hit Profile Panel
Sequence of Seritonin (5-Hydroxytryptamine) 5-HT2B (P41595 whole entry): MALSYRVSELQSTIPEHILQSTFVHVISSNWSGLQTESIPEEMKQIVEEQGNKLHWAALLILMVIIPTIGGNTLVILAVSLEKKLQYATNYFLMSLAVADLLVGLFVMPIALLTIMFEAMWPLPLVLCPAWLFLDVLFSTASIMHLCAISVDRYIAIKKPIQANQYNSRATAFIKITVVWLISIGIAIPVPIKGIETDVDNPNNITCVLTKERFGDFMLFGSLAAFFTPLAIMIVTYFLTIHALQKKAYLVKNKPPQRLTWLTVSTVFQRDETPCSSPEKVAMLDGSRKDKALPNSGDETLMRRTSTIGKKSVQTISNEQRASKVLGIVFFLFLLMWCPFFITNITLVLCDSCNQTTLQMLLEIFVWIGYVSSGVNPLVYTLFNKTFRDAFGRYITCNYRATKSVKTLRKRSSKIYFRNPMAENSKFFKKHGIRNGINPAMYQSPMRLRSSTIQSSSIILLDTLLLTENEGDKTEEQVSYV

Sodium Channel, Site 2 = conditions: rat; 10 μM compound; Hit Profile Panel
[6] = target: Transporter, Norepinephrine (NET) (Homo sapiens, UniProt P23975); conditions: 10 μM compound, Hit Profile Panel
Sequence of Transporter, Norepinephrine (NET) (P23975 whole entry): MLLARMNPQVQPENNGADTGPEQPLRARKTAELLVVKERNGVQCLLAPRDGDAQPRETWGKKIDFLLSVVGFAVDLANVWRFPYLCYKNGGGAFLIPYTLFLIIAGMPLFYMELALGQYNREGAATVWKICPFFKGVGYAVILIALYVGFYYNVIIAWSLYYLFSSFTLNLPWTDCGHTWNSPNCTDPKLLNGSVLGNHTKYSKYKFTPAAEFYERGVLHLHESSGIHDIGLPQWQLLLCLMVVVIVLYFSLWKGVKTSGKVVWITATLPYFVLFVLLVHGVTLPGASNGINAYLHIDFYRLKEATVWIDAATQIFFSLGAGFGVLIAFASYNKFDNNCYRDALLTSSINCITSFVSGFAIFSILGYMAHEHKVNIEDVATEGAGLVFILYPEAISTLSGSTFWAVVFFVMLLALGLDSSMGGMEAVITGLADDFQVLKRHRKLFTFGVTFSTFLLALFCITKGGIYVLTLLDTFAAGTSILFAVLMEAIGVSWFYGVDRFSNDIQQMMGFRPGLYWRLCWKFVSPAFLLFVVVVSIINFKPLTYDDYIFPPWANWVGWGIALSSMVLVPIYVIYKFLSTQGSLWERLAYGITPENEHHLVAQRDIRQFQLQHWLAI

Row | SMILES | % Inhibition, Calcium Channel L-type, Dihydropyridine [1] [%] | % Inhibition, GABAA, Flunitrazepam, Central [2] [%] | % Inhibition, GABAA, Muscimol, Central (GABAA, Muscimol, Central) [%] | % Inhibition, Glutamate, NMDA, Phencyclidine [3] [%] | % Inhibition, Nicotinic Acetylcholine (Nicotinic Acetylcholine) [%] | % Inhibition, Sodium Channel, Site 2 (Sodium Channel, Site 2) [%] | inhibition at 10 µM (Adenosine A1) [%] | inhibition at 10 µM (Adenosine A2A) [%] | inhibition at 10 µM (Adrenergic α2A) [%] | inhibition at 10 µM (Adrenergic β1) [%] | inhibition at 10 µM (Adrenergic β2) [%] | inhibition at 10 µM (Cannabinoid CB1) [%] | inhibition at 10 µM (Dopamine D1) [%] | inhibition at 10 µM (Dopamine D2s) [%] | inhibition at 10 µM (Histamine, H1) [%] | inhibition at 10 µM (Muscarinic M2) [%] | inhibition at 10 µM (Muscarinic M3) [%] | inhibition at 10 µM [4] [%] | inhibition at 10 µM (Prostanoid EP4) [%] | inhibition at 10 µM [5] [%] | also measured
1 | O=C(Nc1nnc(-c2ccc(F)cc2)o1)N1CCc2ccccc2C1 [MBX-4132] | 15 | 13 | 1 | −3 | −8 | 4 |  |  |  |  |  |  |  |  |  |  |  |  |  |  | % Inhibition, Adenosine A1 (Adenosine A1): 48%; % Inhibition, Adenosine A2A (Adenosine A2A): 43%; % Inhibition, Adrenergic α2A (Adrenergic α2A): 54%; % Inhibition, Adrenergic β1 (Adrenergic β1): −10%; % Inhibition, Adrenergic β2 (Adrenergic β2): 36%; % Inhibition, Cannabinoid CB1 (Cannabinoid CB1): 14%; % Inhibition, Dopamine D1 (Dopamine D1): −8%; % Inhibition, Dopamine D2s (Dopamine D2s): 25%; % Inhibition, Histamine, H1 (Histamine, H1): 17%; % Inhibition, Muscarinic M2 (Muscarinic M2): 13%; % Inhibition, Muscarinic M3 (Muscarinic M3): 16%; % Inhibition, Nicotinic Acetylcholine a1, Bungarotoxin ([4]; human, 10 μM compound, Hit Profile Panel): 0%; % Inhibition, Prostanoid EP4 (Prostanoid EP4): 18%; % Inhibition, Seritonin (5-Hydroxytryptamine) 5-HT2B [5]: 53%; % Inhibition, Transporter, Norepinephrine (NET) [6]: 50%
2 | O=C(Nc1nnc(-c2ccc(F)cc2)o1)c1ccc(OC2CCCCC2)cc1 [compound 4292] | 23 | −1 | −4 | 0 | 1 | −2 | 8 | 11 | 3 | 3 | 6 | 11 | 17 | 1 | -8 | 0 | 0 | -4 | 28 | -7 | inhibition at 10 µM [6]: 77%
3 | O=C(Nc1nnc(-c2ccc(F)cc2)o1)N1CC=C(C(F)(F)F)CC1 [compound 4347] | 16 | 22 | 4 | 5 | −4 | −5 | -4 | 3 | 9 | 3 | 8 | 0 | 5 | -2 | 22 | 2 | 2 | 2 | -4 | -1 | inhibition at 10 µM [6]: 32%
